Series [1] deals with Thompson seedless table grape vines. Particulars: applied about three weeks before bloom; cited from earlier work.
The subject of series [2] is Vitis vinifera L. cv. Malbec. The experiment in a line: Field trial 2014-2015: GA5, GA4, GA4/7 bunch dip or spray on cv. Malbec grapevines (Example 3). The series is classed as in vivo. On the procedure:
(§1) A third trial was done in the same vineyard used for the trials outlined in Examples 1 and 2. Grapevines were selected from a clone of Vitis vinifera L. cv. Malbec, planted in 1997 on their own roots in a commercial vineyard located in Gualtallary, Mendoza, Argentina (1450 m above sea level, 69°15′37″ W and 33°23′51″ S). The vines were trained on a vertical trellis system arranged in north-south oriented rows spaced 2 m apart, with 1.20 m between plants within the row. The grapevines were maintained with no soil water restriction during the whole experiment by the use of a drip irrigation system (4 liters per plant per night), and the fruiting vines were protected with anti-hail nets (black polyethylene).
The effects of two concentrations (i.e., 10 mg/L and 50 mg/L) of three different gibberellin compositions (GA5, GA4, and a mixture of GA4 and GA7 referred to as “GA4/7”) on berry and bunch development and quality in treated cv. […] All of the treatment solutions, including the water controls, contained 0.1% v/v of the surfactant TRITON®-X and a minimal amount of 96% EtOH to dissolve the various GA5, GA4, and GA4/7 powders (the control treatments also included a minimal amount of 96% EtOH).
The effects of GA applications were assessed at two stages of berry development. The first group of test plants was treated at 60 DBV (i.e. 31 DAF) while a second group of test plants was treated at 30 DBV (i.e. 61 DAF). At each application stage, the groups of test plants receiving selected treatments were each divided into two subsets. The developing berry bunches on the first subset of plants for a selected treatment were treated by submerging into a 750-mL volume of the test solution for a period of 15 sec during late afternoon. The second subset of plants was treated with a spray application of 150 mL of test solution per each test plant. The spray applications were made in late afternoon.
For each of the two application stages, a randomized complete block design with 14 treatments and 5 blocks was used for a […]. The experimental unit consisted of one plant selected as being “typical” among 6 consecutive plants in a selected row. Each row was a replicate, i.e., a “block”. There were thus 40 experimental units (plants) utilized for each growth regulator. All the grapevines in the 5 replicate rows were pruned to 8 “fruiting” shoots and the crop load on each shoot was thinned to two bunches per shoot at the beginning of the experiment (31 DAF or 60 DBV). One shoot per experimental unit was selected, marked and used for the non-destructive measurements (shoot length, number of leaves and leaf area), while the rest of the shoots were used for berry sampling.
(§2) At harvest, the two selected and marked bunches from one fruiting shoot per experimental unit, i.e. not used for berry sampling, were collected in nylon bags and weighed. Then the number of berries per bunch was counted.
Samples of 25 berries per experimental unit were randomly collected in nylon bags (5 berries from each bunch; two top berries, two middle berries, one bottom berry; for each test vine, berries were collected from 5 bunches exposed to the west). These berry samples were taken at 132 DAF (132 DAF being the time of ripe berry harvest). The berries were kept on dry ice to prevent enzyme activity and dehydration and were taken quickly to the laboratory where berry fresh weights (FW) were determined before the berries were stored at −20° C. Then, 15 berries per experimental unit were defrosted at ambient room temperature after which, the skins were separated from fruit pulp and seeds by hand. The fruit pulp was collected in nylon bags, crushed by hand pressing and the relative concentration of sugars (°Brix) was measured in the pulp juice with a PAL-1 digital hand-held refractometer (Atago Co., Ltd., Tokyo, Japan). The °Brix was multiplied by the berries' FW to calculate sugar on a per berry basis (absolute amounts). […]

For series [3], the system named is Vitis vinifera L. cv. Malbec. The experiment in a line: Field trial 2012-2013: GA5 bunch dip once at 30 DBV on cv. Malbec grapevines (Example 2). In kind it is in vivo. On the procedure:
as §1, with “second” for “third”, “trial” for “trials”, “Example 1.” for “Examples 1 and 2.”
The treatments were applied by submerging all of the fruit bunches on each vine in a treatment group in the selected aqueous solution (fruit bunches from control vines were submerged in water). All of the treatment solutions, including the water controls, contained 0.1% v/v of the surfactant TRITON®-X and a minimal amount of 95% EtOH to dissolve the GA5 powders (the control treatments also included a minimal amount of 95% EtOH). All treatments were applied once at 30 DBV (i.e. 61 DAF). Each berry bunch on a test vine was submerged in 750 mL of the selected treatment solution for 15 sec during a late afternoon time period.
A randomized complete block design with 5 treatments and 5 blocks was used during the 2012-2013 production season. The experimental unit consisted of one plant selected as being “typical” among 6 consecutive plants in a selected row. Each row was a replicate, i.e., a “block”. There were thus 5 experimental units (plants) utilized for each treatment, one for each row (block). All the grapevines in the 5 replicate rows were pruned to 8 “fruiting” shoots and the crop load on each shoot was thinned to two bunches per shoot at 40 days after flowering (DAF). One shoot per experimental unit was selected, marked and used for the non-destructive measurements (shoot length, number of leaves and leaf area), while the rest of the shoots were used for berry sampling.
(§3) Shoot length, number of leaves and midrib (main vein) length of all leaves were measured at: (i) 30 DBV just before application of the first set of treatments, and (ii) at harvest. At harvest, all of the leaves from 10 randomly selected shoots were collected in nylon bags, kept on ice to prevent dehydration, and were taken to the laboratory where the length of the leaf midribs, weights of separated leaves, and the weights of 1-cm^2 leaf discs were determined. Then, the leaf areas (LA) were calculated and, based on the weights, a linear regression model between the LA and the midrib length was generated. The correlation coefficient (r^2) was 0.91 and thus the model was used to transform the non-destructive measurements of midrib length into LA values.
as §2

Series [4] relates to Vitis vinifera L. cv. Malbec. Kind of series: Field trial 2010-2011: GA5 bunch dip on cv. Malbec grapevines (Example 1). In kind it is in vivo. On the procedure:
as §1, with “Grapevines” for “A third trial was done in the same vineyard used for the trials outlined in Examples 1 and 2. Grapevines”
The treatments were applied by submerging all of the fruit bunches on each vine in a treatment group in the selected aqueous solution (fruit bunches from control vines were submerged in water). All of the treatment solutions, including the water controls, contained 0.1% v/v of the surfactant TRITON®-X (TRITON is a registered trademark of the Dow Chemical Co., Indianapolis, Ind., USA) and a minimal amount of 95% EtOH to dissolve the GA5 powders (the control treatments also included a minimal amount of 95% EtOH). The treatments were applied three times; 56 days after flowering (DAF; i.e., 35 days before veraison—“DBV”), 70 DAF (i.e., 21 DBV), and 91 DAF (i.e., 0 DBV). The 91 DAF treatment time corresponded to veraison. Each berry bunch on a test vine was submerged in 750 mL of the selected treatment solution for 15 sec during a late afternoon time period.
A randomized complete block design with 4 treatments and 5 blocks was used during the 2010-2011 production season. The experimental unit consisted of one plant selected as being “typical” among 6 consecutive plants in a selected row. Each row was a replicate, i.e., a “block”. There were thus 5 experimental units (plants) utilized for each treatment, one for each row (block). All the grapevines in the 5 replicate rows were pruned to 8 “fruiting” shoots and the crop load on each shoot was thinned to two bunches per shoot at 40 days after flowering (DAF). One shoot per experimental unit was selected, marked and used for the non-destructive measurements (shoot length, number of leaves and leaf area), while the rest of the shoots were used for berry sampling.
as §3, with “56 DAF/35” for “30”, “132 DAF (harvest date).” for “at harvest.”, “the 132 DAF,” for “harvest,”
At 132 DAF, the two selected and marked bunches from one fruiting shoot per experimental unit, i.e. not used for berry sampling, were collected in nylon bags and weighed. Then the number of berries per bunch was counted.
Finally, in the next year's flowering and fruiting season (early 2012) the number of fruit clusters bunches per shoot were counted in order to assess GA5 treatment effects on return bloom.

The mark [5] stands for this setting: 10 and 50 mg/L, submersion and spraying, 60 DBV and 30 DBV, vs controls.

Here are results for three molecules from US20190021323A1, “Use of Gibberellin A5 to Increase the Yield and Quality of Wine Grapes” (UTI Limited Partnership, priority 2016, published 2019).

Consider `C=C1C[C@]23C[C@@]1(O)CC[C@H]2[C@@]12C=C[C@H](O)[C@@](C)(C(=O)O1)[C@H]2[C@@H]3C(=O)O` [GA3, gibberellic acid], for which, in series [1], the Berry cluster compactness result is given as “reduce berry cluster compactness” and the Fruit set entry is listed as “reduce fruit set”.

Turning to `C=C1C[C@]23C[C@H]1CCC2[C@@]12CC[C@H](O)C(C)(C(=O)O1)C2[C@@H]3C(=O)O` (stereo partly drawn) [GA4, gibberellin A4], the “Harvest yield (average per bunch fresh weight), significance vs controls” value in series [2] (8 rate/method/stage combinations, FIG. 8A) is recorded as “significantly different from the controls in 5 out of 8 rates”. Besides, in series [2] (setting [5]), the “Anthocyanin content per berry skin” value is “appreciable increases”, the “Average per bunch fresh weight” value is reported as “increased”, the “Dry weight per individual berry” value was “tended to be generally increased” and the “Number of berries per bunch” value is given as “increased”. Moreover, in series [2] (setting [5]), the “Sugar content per berry” value is “tended to result in increased” and the “Total polyphenol index (TPI) per berry skin” value is “appreciable increases”.

For `C=C1C[C@]23C[C@@]1(O)CC[C@H]2[C@@]12CC=C[C@@](C)(C(=O)O1)[C@H]2[C@@H]3C(=O)O` [GA5, gibberellin A5], in series [2] (setting [5]), the “Anthocyanin content per berry skin” value is reported as “tended to be generally increased”, the “Average per bunch fresh weight” value is on record as “increased”, the “Dry weight per individual berry” value is given as “generally increased” and the “Fresh weight per individual berry” value was “generally increased”. Further, in series [2] (setting [5]), the “Number of berries per bunch” value is reported as “increased”, the “Sugar content per berry” value is “(non-significant) increased” and the “Total polyphenol index (TPI) per berry skin” value is reported as “tended to be generally increased”. The “Shoot length, significance vs Control” value in series [3] (5 mg/L, dip once at 30 DBV, FIG. 3A) is recorded as “statistically significantly different from the Control”. For the same molecule, in series [3] (20 mg/L, dip once at 30 DBV, FIG. 4A), the “Per bunch fresh weight” value is listed as “significantly increased”. Also, the “Number of berries per bunch” value in series [3] (20 mg/L, dip once at 30 DBV, FIG. 4B) is reported as “significantly increased”. Also, the “Grape yield per plant and per hectare” value in series [3] (20 mg/L, inferred from bunch weight) is “appreciably increased”. Further, the Shoot length result in series [3] (all four treatments 5, 20, 50, 250 mg/L, dip once at 30 DBV, at harvest, FIG. 3A) is recorded as “decreased”. For the same molecule, the “Leaf surface area per shoot” value in series [3] (all four treatments 5, 20, 50, 250 mg/L, dip once at 30 DBV, at harvest, FIG. 3B) is reported as “decreased”. Moreover, the “Vegetative growth of shoots (shoot length, number of leaves)” value in series [4] (5, 50, 250 mg/L, bunch dip at 35, 21 and 0 DBV, post-56 DAF to harvest, vs controls, FIGS. 1A-1C) is “not significantly affected”. For the same molecule, the “Return bloom: number of fruit clusters (bunches) per shoot in the following season” value in series [4] (assessed early 2012, FIG. 2C) is recorded as “no significant effects”. The “Per bunch fresh weight of grape berry bunches” value in series [4] (lower GA5 application rates, dip at 56, 70 and 91 DAF, harvested at 132 DAF, FIG. 2A) is “significant increases”. In addition, in series [4] (lower GA5 application rates, dip at 56, 70 and 91 DAF, harvested at 132 DAF, FIG. 2B), the “Number of berries per bunch” value is recorded as “significant increases”. The “Leaf surface area per shoot” value in series [4] (lower concentrations 5 mg/L, 50 mg/L, bunch dip at 35, 21 and 0 DBV, FIG. 1C) is recorded as “tended to reduce”.
